Source: PMC6010071, “Blocking oestradiol synthesis pathways with potent and selective coumarin derivatives” (Journal of Enzyme Inhibition and Medicinal Chemistry, 2018)
Read-outs that look alike come from different tables or passages of the source.

Assays:
[1] = target: T1, heterologously expressed human CYP1A2 enzyme (Homo sapiens, UniProt P05177); test: CYP1A2 inhibition; type: biochemical; conditions: for IC50: read-out: CYP1A2 inhibition ∼ pIC50 (converted)
T1 construct: purchased Corning Inc., Corning, NY
T1 sequence (P05177 1-516): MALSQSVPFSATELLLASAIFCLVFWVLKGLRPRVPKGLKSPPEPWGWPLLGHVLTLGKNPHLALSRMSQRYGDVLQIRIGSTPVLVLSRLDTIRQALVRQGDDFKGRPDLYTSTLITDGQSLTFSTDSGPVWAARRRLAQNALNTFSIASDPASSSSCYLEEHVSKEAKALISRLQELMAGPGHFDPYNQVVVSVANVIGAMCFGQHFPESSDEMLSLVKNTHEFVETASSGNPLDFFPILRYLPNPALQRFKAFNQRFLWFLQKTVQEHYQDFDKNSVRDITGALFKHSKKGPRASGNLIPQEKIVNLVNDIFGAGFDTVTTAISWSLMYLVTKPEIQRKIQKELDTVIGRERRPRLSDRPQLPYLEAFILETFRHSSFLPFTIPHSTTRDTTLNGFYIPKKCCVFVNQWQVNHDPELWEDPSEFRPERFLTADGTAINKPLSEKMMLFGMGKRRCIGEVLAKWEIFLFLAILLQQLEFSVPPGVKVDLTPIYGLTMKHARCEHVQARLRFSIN
Description: Inhibition of CYP1A2 activity was determined using commercial heterologously expressed human CYP1A2 enzyme (Corning Inc., Corning, NY) essentially as described previously.

recombinant human HSD1 = target: T2, recombinant human HSD1 (Homo sapiens, UniProt P14061); test: HSD1 inhibition, HPLC assay of [3H]-E1 to [3H]-E2 conversion; type: biochemical; conditions: for inhibition at 0.1 µM: average of two measurements; for inhibition at 0.1 µM / inhibition at 1 µM: except for compounds 8 and 9; for inhibition at 1 µM: average of three measurements; for IC50: estimated from three measurements at 1 µM, average ± standard error, read-out: HSD1 inhibition ∼ pIC50 (converted)
T2 construct: made in house; host or cells: Sf9 insect cells
T2 sequence (P14061 1-328): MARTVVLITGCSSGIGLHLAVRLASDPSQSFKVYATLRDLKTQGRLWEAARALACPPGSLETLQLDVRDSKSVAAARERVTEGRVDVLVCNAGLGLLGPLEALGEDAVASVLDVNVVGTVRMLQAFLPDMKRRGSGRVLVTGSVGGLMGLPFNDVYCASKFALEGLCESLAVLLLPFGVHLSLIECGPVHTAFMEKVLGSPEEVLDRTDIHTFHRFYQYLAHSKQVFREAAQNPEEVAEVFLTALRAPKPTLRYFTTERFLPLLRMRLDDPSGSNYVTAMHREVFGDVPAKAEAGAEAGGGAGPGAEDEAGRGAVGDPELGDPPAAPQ
Description: The inhibition was determined by HPLC using recombinant human HSD1 and HSD2 proteins as described in a prior study. In short, recombinant human HSD1 and HSD2 were produced in Sf9-insect cells. […] After incubation, the reaction was stopped by addition of […] 10% trichloroacetic acid per sample. […] The ratio of [3H]-E1 converted to [3H]-E2 or vice versa determines the conversion percentage of the samples. Inhibition was measured in three concentrations (100 nM, 1, and 5 µM) in order to follow the progression of inhibition efficiencies. Inhibition efficiencies of the tested inhibitors were calculated by comparing the conversion percentages of the samples including inhibitors with those of conversion controls (without inhibitors).

ERα = target: T3, ERα (Homo sapiens, UniProt P03372); test: PolarScreen ER Alpha Competitor Assay (fluorescence polarisation); type: binding; conditions: for IC50: 25 nM ERα, 4.5 nM fluormone, read-out: ER binding pIC50 (converted)
T3 construct: purchased Life Technologies, Carlsbad, CA
T3 sequence (P03372 1-595): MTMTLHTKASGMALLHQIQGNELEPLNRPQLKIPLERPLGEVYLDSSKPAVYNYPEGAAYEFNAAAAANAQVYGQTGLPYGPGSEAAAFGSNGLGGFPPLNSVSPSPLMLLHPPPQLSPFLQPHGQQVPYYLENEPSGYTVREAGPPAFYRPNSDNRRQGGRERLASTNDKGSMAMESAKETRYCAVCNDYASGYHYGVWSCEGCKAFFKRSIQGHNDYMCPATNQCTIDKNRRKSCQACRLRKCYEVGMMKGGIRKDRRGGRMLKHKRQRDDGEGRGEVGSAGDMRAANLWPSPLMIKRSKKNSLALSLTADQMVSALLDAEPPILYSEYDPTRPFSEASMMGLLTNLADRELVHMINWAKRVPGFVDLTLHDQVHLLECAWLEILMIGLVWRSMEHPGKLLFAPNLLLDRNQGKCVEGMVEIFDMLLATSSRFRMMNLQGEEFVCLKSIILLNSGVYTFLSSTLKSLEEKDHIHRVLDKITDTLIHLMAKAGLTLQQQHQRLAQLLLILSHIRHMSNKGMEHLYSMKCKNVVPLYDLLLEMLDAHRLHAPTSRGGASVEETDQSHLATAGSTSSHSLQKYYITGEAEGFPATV
Description: The pIC50 values of the molecules (Table 1) were measured using green PolarScreen™ ER Alpha Competitor Assay (Life Technologies, Carlsbad, CA) kit, following the protocol provided by the manufacturer as previously described. The final concentration of the molecules ranged between 0.0007 and 10,000 nM in the prepared dilution series. […] After mixing the assay plate, it was incubated for 2 h at the room temperature.

[2] = target: T4, Aromatase (CYP19A1), human placental microsomes (Homo sapiens, UniProt P11511); test: Aromatase activity, [3H]-H2O release from [3H]-androstenedione; type: biochemical; conditions: 50 nM [3H]-androstenedione; inhibitor 60–1000 nM; read-out: Aromatase inhibition ∼ pIC50 (converted)
T4 construct: by using human placental microsomes; from tissue; host or cells: human placental microsomes
T4 sequence (P11511 1-503): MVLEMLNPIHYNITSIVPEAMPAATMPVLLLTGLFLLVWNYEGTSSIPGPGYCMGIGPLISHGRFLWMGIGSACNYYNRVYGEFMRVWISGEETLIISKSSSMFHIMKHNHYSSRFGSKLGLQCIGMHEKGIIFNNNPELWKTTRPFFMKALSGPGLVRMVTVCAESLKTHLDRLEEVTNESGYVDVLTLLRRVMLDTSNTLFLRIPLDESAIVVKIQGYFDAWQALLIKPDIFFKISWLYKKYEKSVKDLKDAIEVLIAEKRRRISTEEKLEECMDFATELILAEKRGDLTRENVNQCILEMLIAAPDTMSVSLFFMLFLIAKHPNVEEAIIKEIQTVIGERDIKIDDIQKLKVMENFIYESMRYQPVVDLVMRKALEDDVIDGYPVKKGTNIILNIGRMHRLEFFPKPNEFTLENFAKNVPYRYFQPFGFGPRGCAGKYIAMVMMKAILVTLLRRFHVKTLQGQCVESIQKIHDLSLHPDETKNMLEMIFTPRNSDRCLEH
Description: Aromatase (CYP19A1) activity was measured as described previously[22] by using human placental microsomes and 50 nM [3H]-androstenedione as a substrate and inhibitor concentrations in the range of 60–1000 nM. Aromatase activities were measured as released [3H]-H2O in Optiphase Hisafe 2 scintillation liquid (Perkin Elmer, Waltham, MA) with a Wallac 1450 MicroBeta Trilux scintillation counter (Perkin Elmer, Waltham, MA). As a positive control for aromatase inhibition, 1 µM finrozole (generous gift from Olavi Pelkonen, University of Oulu, Finland) was used.

[3] = 100 nM, read-out: HSD1 inhibition at 100 nM
[4] = 1 µM, read-out: HSD1 inhibition at 1 µM
[5] = 5 µM, read-out: HSD1 inhibition at 5 µM

Row | SMILES | IC50 [1] | inhibition at 0.1 µM (recombinant human HSD1; [3]) | inhibition at 1 µM (recombinant human HSD1; [4]) | inhibition at 5 µM (recombinant human HSD1; [5]) | IC50 (recombinant human HSD1) | IC50 (ERα) | IC50 [2] | inhibition at 0.1 µM (recombinant human HSD1; read-out: HSD1 inhibition at 100 nM, 100 nM) | inhibition at 1 µM (recombinant human HSD1; read-out: HSD1 inhibition at 1 µM, 1 µM) | inhibition at 5 µM (recombinant human HSD1; read-out: HSD1 inhibition at 5 µM, 5 µM) | CYP1A2 inhibition ∼ pIC50 [1] | ER inhibition (in words) (ERα)
1 | COc1ccc(-c2cc3cccc(O)c3oc2=O)cc1 [Compound 1, 8-hydroxy-3–(4-methoxyphenyl)-2H-chromen-2-one] | 85.1 µM | 16% | ≥ 68% | 88% | 0.501 µM | > 10 µM | > 1 µM | – | – | – | – | –
2 | O=c1oc2ccc(O)cc2cc1-c1ccc(O)cc1 [Compound 2, 6-hydroxy-3–(4-hydroxyphenyl)-2H-chromen-2-one] | 33.1 µM | – | – | – | 0.631 µM | > 10 µM | > 1 µM | 26% | ≥ 68% | 83% | – | –
3 | O=c1oc2ccccc2cc1-c1cccc(O)c1 [Compound 3, 3–(3-hydroxyphenyl)-2H-chromen-2-one] | 7.08 µM | 7% | 47% | 76% | 1.26 µM | > 10 µM | > 1 µM | – | – | – | – | –
4 | O=c1oc2ccc(Cl)cc2cc1-c1cccc(O)c1 [Compound 4, 6-chloro-3–(3-hydroxyphenyl)-2H-chromen-2-one] | 0.129 µM | 47% | ≥ 68% | 95% | 0.158 µM | > 10 µM | > 1 µM | – | – | – | – | –
5 | COc1ccc2cc(-c3ccc(O)c(F)c3)c(=O)oc2c1 [Compound 6, 3–(3-fluoro-4-hydroxyphenyl)-7-methoxy-2H-chromen-2-one] | – | 14% | 23% | 27% | 3.98 µM | 0.708 µM | > 1 µM | – | – | – | 4.52 | reasonable ER inhibition
6 | COc1ccc2oc(=O)c(-c3ccc(O)c(F)c3)cc2c1 [Compound 7, 3–(3-fluoro-4-hydroxyphenyl)-6-methoxy-2H-chromen-2-one] | – | 16% | 39% | 62% | 1.58 µM | > 10 µM | > 1 µM | – | – | – | 5.82 | –
